The source of these data is patent US5047533A, “Acyclic purine phosphonate nucleotide analogs” (SRI International, priority 1990, dated 1991).

Each structure is given as a SMILES string. In brackets after ≈: the same amount, converted by molar mass. Read-outs that look alike come from different tables or passages of the source.

The subject of series [1] is human cytomegalovirus (strain AD169). Put plainly: Plaque reduction, human cytomegalovirus. The format is cell-based. The method, then: (§1) One herpes virus strain employed was Strain McCrae of type 1 herpes (thymidine kinase positive virus) (HSV-1TK^+). This strain was prepared and titered in MA-104 cells and frozen at -90° C. until use. Also used were strain HF (HSV-1TK^-). Strain E194 (HSV-2), NJB strain (MCMV), strain AD169 (HCMV).
^a 50% effective dose, determined from plot of data.
(§2) The data on acyclovir were gathered from tests run in MRC-5 cells grown under agarose overlay, with plaques read 7 days after virus exposure.

A short description of series [2]: Cytotoxicity (maximum tolerated dose), control tests in 96-well microplates. The settings on record: Table 5; microscopic examination, separately run control tests; read-out: Approx. MTD (dose causing approximately 50% cytotoxic effects in cells). The format is cell-based.
Excerpt: (§3) ^b Maximum tolerated dose: That dose causing approximately 50%
(§4) cytotoxic effects in cells, determined by the microscopic examination of
(§5) cells for sloughing, shape alteration, and granularity in separately run
(§6) control tests in 96well microplates.
as §2

The next series concerns HSV-1TK+. Briefly: In vivo guinea pig HSV-1TK+ lesion test, topical solution. As to conditions: guinea pigs; 5% solution of acyclovir; five days after treatment. The protocol:
Compound 2 also was tested in vivo in guinea pigs as an agent against HSV-1TK^+. The animals were inoculated with the virus; 18 hours later Compound 2 at two concentrations (0.4% and 1-2% (saturated) solution in water) was administered, and five days later blister diameters at the point of inoculation were measured. A 5% solution of acyclovir or a 1.4% solution of poly(vinylalcohol) was used as control. Satellite lesions were measured, as well.

Series [3] concerns reverse transcriptase (RT) from Moloney murine leukemia virus (MMLV) or avian myeloblastosis virus (AMV). Briefly: Reverse transcriptase assay. The format is biochemical. The settings on record: 8 mM concentration. The protocol:
For the reverse transcriptase assay, cloned reverse transcriptase (RT) (Bethesda Research Laboratories) from Moloney murine leukemia virus (MMLV) or avian myeloblastosis virus (AMV) (Seikagaku or Boehringer Mannheim) was used to direct DNA synthesis from a polyribonucleotide template and a oligodeoxynucleotide primer under reaction conditions (Houts, G. E., et al, J Virol (1979) 29:517.)
Reaction mixtures (100 μl) for the assay of MMLV RT consisted of 50 mM Tris-hydrochloride, pH 8.0, 6 mM MgCl2, 40 mM KCl, 100 μg bovine serum albumin per ml, 1 mM dithiothreitol, 0.1 mM polyadenylic acid (Pharmacia, Inc.), 0.1 mM oligo(dT)12-18 (Pharmacia, Inc.), 0.4 mM deoxythymidine triphosphate (dTTP), and 0.1 mM tritiated (93.5 Cl/mmol) dTTP (New England Nuclear). The compounds assayed were added in various concentrations and dilutions at a volume of 10 μl. Results were confirmed by duplicate assays. Dilutions were made using 10% aqueous DMSO. The total activity was measured by spotting on dry Whatman 3 mm filter disks and radioactivity was determined by liquid scintillation techniques. The assay time course was begun by adding 10 units of RT from MMLV or AMV and incubating the reaction at 37° C. […] Disks were dried under a heat lamp and the acid-insoluble product radioactivity was determined by liquid scintillation counting. […]

A further series concerns murine CMV (NJB strain). Put plainly: Inhibition of viral CPE, murine CMV. The format is cell-based. The method, then:
as §1
(§7) Continuous passaged monkey kidney (MA-104) cells were used for testing of herpes-type virus, with growth medium consisting of Minimum Essential Medium (MEM) supplemented with 0.1% NaHCO3 and […] gentamicin.
(§8) To a 96 well microtiter plate containing an established 24 hour monolayer of cells from which the medium has been decanted was added 0.1 ml of varying (one-half log10) concentrations of test compound, which incubated on the cell 15 minutes, after which 0.1 ml of virus in a concentration of 320 cell culture 50% infectious doses (CCID50)/0.1 ml was added. The plate was covered with plastic wrap and incubated at 37° C. Included with the test were toxicity controls (each concentration of compound+test medium in place of virus), virus controls (virus+test medium in place of compound) and cell controls (test medium in place of compound and virus). The cells were examined microscopically after 72 hours for evidence of cytotoxicity and for viral cytopathic effect (CPE). […]
(§9) Antiviral activity was determined by observation of inhibition of viral CPE. […]
A Virus Rating (VR) was also determined. […]

A further series concerns HIV. Briefly: Antiviral activity versus HIV in lymphoblastoid cells. The format is cell-based. As to conditions: Human immunodeficiency virus 1, Lymphoblastoid cell; read-out: ED50 against HIV. The protocol:
The compounds of the invention were evaluated in vitro as antiviral agents against herpes virus and against RNA retrovirus. Various herpes strains were used. An infected B lymphoblastoid cell line was used as HIV substrate to test antiviral activity with respect to RNA retrovirus.
To test antiviral activity versus HIV, the following procedure was used: Infectious HIV was assayed in cell culture as described originally by Barre-Sinoussi et al for isolation of LAV, except that persistently infected lymphoblastoid cells were used instead of mononuclear cells from anti-LAV negative donors. HIV obtained from cell culture was stored in liquid nitrogen in aliquots of RPMI 1640 culture medium with 20% of total calf serum and 20% glycerol and containing 1,000 TCID-50 HIV. The lymphoblastoid cells (10^6) were incubated with 1,000 TCID-50 of HIV obtained from cell cultures, and cells were then cultured in RPMI-1640 medium. Culture medium was changed every 3 days for 3 weeks and the medium for each 3-day period from Day 6 through Day 21 was assayed for viral reverse transcriptase activity by concentrating (pelleting) virus by ultracentrifugation in the 100 place Spinco 25 rotor and assaying pellets for reverse transcriptase (RT) using a ^32 P-dTTP in the presence of dimer-template poly rA-oligo dT. […]

The subject of series [4] is HSV-1TK+ (Strain McCrae of type 1 herpes). Briefly: Inhibition of viral CPE, HSV-1TK+ in MA-104 cells. The format is cell-based. As to conditions: for inhibition at 1 µg/mL: 1.0 μg/ml; for inhibition at 3.2 µg/mL: 3.2 μg/ml; for inhibition at 10 µg/mL: 10 μg/ml; for inhibition at 100 µg/mL: 100 μg/ml; for inhibition at 320 µg/mL: 320 μg/ml; for inhibition at 1000 µg/mL: 1000 μg/ml. The method, then: as §1, §7
To a 96 well microtiter plate containing an established 24 hour monolayer of cells from which the medium has been decanted was added 0.1 ml of varying (one-half log10) concentrations of test compound, which incubated on the cell 15 minutes, after which 0.1 ml of virus in a concentration of 320 cell culture 50% infectious doses (CCID50)/0.1 ml was added. The plate was covered with plastic wrap and incubated at 37° C. Included with the test were toxicity controls (each concentration of compound+test medium in place of virus), virus controls (virus+test medium in place of compound) and cell controls (test medium in place of compound and virus). The cells were examined microscopically after 72 hours for evidence of cytotoxicity and for viral cytopathic effect (CPE). Vidarabine was run on the same plate in parallel. […] were added to the medium at a concentration of 2000 μg/ml for use as a positive control.
Antiviral activity was determined by observation of inhibition of viral CPE. This activity was expressed by ED50, defined as that dose range of compound causing 50% CPE inhibition.
A Virus Rating (VR) was also determined. VR is a numerical expression of antiviral activity, weighted to take into account any cytotoxicity observed, as discussed by Sidewell et al, Appl Microbiol (1971) 22:797. Generally, a VR of 0.1-0.4 indicates slight antiviral effect, 0.5-0.9 indicates moderate antiviral effect, and ≥1.0 indicates strong antiviral effect.

A further series concerns HSV-2 (Strain E194). Briefly: Inhibition of viral CPE, HSV-2. The format is cell-based. The method, then: as §1, §7
as §8, with “(CPE). Vidarabine was run on the same plate in parallel.” for “(CPE).”
as §9

A further series has as its system cells. Briefly: Cytotoxicity (maximum tolerated dose), control tests in 96-well microplates. The format is cell-based. As to conditions: overall, Table 5.
Excerpt: as §3, §4, §5, §6, §2

Where [5] appears, read: MA104, read-out: CPE Inhib., Table 2.
Where [6] appears, read: MA104, read-out: CPE Inhib., Table 3 Test 1.
Where [7] appears, read: MA104, read-out: CPE Inhib., Table 3 Test 2.

With `Nc1nc2c(ncn2COCCO)c(=O)[nH]1` [Acyclovir, 9-(2-hydroxyethoxymethyl) guanine, reference compound], the “No. Plaques” value in series [1] (Experiment No. 1, 32 μg/ml) stood at 7; in series [1] (Experiment No. 1, 100 μg/ml), 1; in series [1] (Experiment No. 2, 10 μg/ml), 20; in series [1] (Experiment No. 2, 32 μg/ml) it was 8; in series [1] (Experiment No. 2, 100 μg/ml), 1. In addition, the “Approx. ED50” value in series [1] (Experiment No. 2, determined from plot of data) lay in the range of 10 to 32 µg/mL. For the same compound, the inhibition at 32 µg/mL was 59% in [1] (Human betaherpesvirus 5, AD169, Experiment No. 1, 32 μg/ml, read-out: % Reduct.) and 64% in series [1] (Human betaherpesvirus 5, AD169, Experiment No. 2, 32 μg/ml, read-out: % Reduct.). Moreover, the inhibition at 100 µg/mL worked out at 94% in [1] (Human betaherpesvirus 5, AD169, Experiment No. 1, 100 μg/ml, read-out: % Reduct.) and 96% in series [1] (Human betaherpesvirus 5, AD169, Experiment No. 2, 100 μg/ml, read-out: % Reduct.). The inhibition at 10 µg/mL in series [1] (Human betaherpesvirus 5, AD169, Experiment No. 2, 10 μg/ml, read-out: % Reduct.) amounted to 9%. Further, the EC50 in [1] (Human betaherpesvirus 5, AD169, Experiment No. 1, determined from plot of data, read-out: Approx. ED50) lay within 10 to 32 µg/mL (≈ 44.4 to 142 µM). Moreover, the CC50 in series [2] was about 1000 µg/mL (≈ 4440 µM). Moreover, the “TK+ (average number of lesions)” value in the series with HSV-1TK+ is 1.0.
For the compound `Nc1nc2c(ncn2COCCCP(=O)(O)O)c(=O)[nH]1` [Compound 1, 9-(3'-phosphono-1'-propoxymethyl)guanine], in series [3], the “inhibition of reverse transcriptase” value was found to be 75%. Moreover, the “activity against murine CMV” value with murine CMV (NJB strain) was “not active”. Moreover, the EC50 with HIV is 40 to 50 µg/mL (≈ 132 to 165 µM). The “activity against HSV-1TK+ relative to vidarabine” value in [4] is “comparable to that of vidarabine”. Also, the “VR (Virus Rating)” value in [4] (additional tests against HSV-1TK+) worked out at 0.6.
For `CCOP(=O)(O)CCC(CO)OCn1cnc2c(=O)[nH]c(N)nc21` (stereo not drawn) [Compound 5, 9(3'-ethylphosphono-1'-hydroxymethyl-1'-propyloxymethyl)guanine], the “effectiveness against HSV-2” value in the series with HSV-2 (Strain E194) is recorded as “mildly effective”. The “No. Plaques” value in series [1] (Experiment No. 1, 32 μg/ml) turned out to be 2; in [1] (Experiment No. 1, 100 μg/ml), 1; in series [1] (Experiment No. 2, 10 μg/ml) it was 7; in series [1] (Experiment No. 2, 32 μg/ml), 3; in [1] (Experiment No. 2, 100 μg/ml) it was 0. In addition, the inhibition at 32 µg/mL in series [1] (Human betaherpesvirus 5, AD169, read-out: % Reduct., Experiment No. 1, 32 μg/ml) stood at 88%; in series [1] (Human betaherpesvirus 5, AD169, read-out: % Reduct., Experiment No. 2, 32 μg/ml), 86%. Moreover, the inhibition at 100 µg/mL in series [1] (Human betaherpesvirus 5, AD169, read-out: % Reduct., Experiment No. 1, 100 μg/ml) amounted to 94%; in series [1] (Human betaherpesvirus 5, AD169, read-out: % Reduct., Experiment No. 2, 100 μg/ml), 100%. Also, the inhibition at 10 µg/mL in [1] (Human betaherpesvirus 5, AD169, read-out: % Reduct., Experiment No. 2, 10 μg/ml) came to 68%. Further, the EC50 is about 0.1 µg/mL (≈ 0.277 µM) in series [1] (Human betaherpesvirus 5, AD169, read-out: Approx. ED50, Experiment No. 1, determined from plot of data); about 3.2 µg/mL (≈ 8.86 µM) in series [1] (Human betaherpesvirus 5, AD169, read-out: Approx. ED50, Experiment No. 2, determined from plot of data); 0.1 to 3.2 µg/mL (≈ 0.277 to 8.86 µM) in series [1] (Human betaherpesvirus 5, AD169, read-out: ED50, human CMV). For the same compound, the “human CMV-inhibitory effect relative to acyclovir” value in series [1] (overall, Table 5) is recorded as “more potent”. Moreover, the “cytotoxicity relative to acyclovir” value in the series on cells is “no more cytotoxic”. In addition, in [2], the CC50 was about 1000 µg/mL (≈ 2770 µM). Besides, the “effectiveness against HSV1TK+” value in series [4] is reported as “mildly effective”.
Turning to `Nc1ncnc2c1ncn2[C@@H]1O[C@H](CO)[C@@H](O)[C@@H]1O` [Vidarabine], the EC50 in series [4] (MA104, 72 h, read-out: ED50) worked out at 10 µg/mL (≈ 37.4 µM). In series [4] (setting [5]), the inhibition at 1 µg/mL is 56%, the inhibition at 3.2 µg/mL worked out at 28%, the inhibition at 10 µg/mL worked out at 69% and the inhibition at 100 µg/mL was 87%. In addition, in series [4] (setting [5]), the inhibition at 320 µg/mL was 100% and the inhibition at 1000 µg/mL is 100%. The inhibition at 32 µg/mL in series [4] (MA104, read-out: CPE Inhib., Table 2, 32 μg/ml) worked out at 87%. For the same compound, in [4] (setting [6]), the inhibition at 1 µg/mL is 0%, the inhibition at 10 µg/mL is 60%, the inhibition at 320 µg/mL was 100% and the inhibition at 1000 µg/mL was 100%. Further, in series [4] (setting [7]), the inhibition at 1 µg/mL was determined as 0%, the inhibition at 3.2 µg/mL was 0%, the inhibition at 100 µg/mL stood at 85% and the inhibition at 320 µg/mL is 100%. The inhibition at 1000 µg/mL in series [4] (setting [7]) turned out to be 100%. Moreover, in [4] (Table 2, HSV-1TK+), the “VR (Virus Rating)” value worked out at 1.3. Besides, the “VR (Virus Rating)” value in series [4] (Table 3 Test 1, HSV-1TK+) came out at 0.8. Further, in [4] (Table 3 Test 2, HSV-1TK+), the “VR (Virus Rating)” value amounted to 0.7.
